In PubChem BioAssay AID1963451 (Molecular Pharmacology Branch, DTP, NCI, 2024):

System: 521955-158-R6-J3-PDC complex spheroid growth, % test/control
Experiment: Anticancer human tumor 521955-158-R6-J3-PDC patient-derived pancreatic carcinoma cell line growth inhibition [Asc]
Conditions: for IC50: curve of first compound; for viability, T/C: stronger effect = lower value
Method in brief: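 Tumor cells were grown as complex spheroids with human endothelial cells (HUVEC) and human mesenchymal stem cells as stroma. Agents were tested alone and in combination, in half-log steps down from the clinical Cmax, or from 10 microM where Cmax was unknown.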

[1] = second compound 0.00949 µM, first compound 0.00316 µM
[2] = second compound 0.00949 µM, first compound 0.01 µM
[3] = second compound 0.00949 µM, first compound 0.0316 µM
[4] = second compound 0.00949 µM, first compound 0.1 µM
[5] = second compound 0.03 µM, first compound 0.00316 µM
[6] = second compound 0.03 µM, first compound 0.01 µM
[7] = second compound 0.03 µM, first compound 0.0316 µM
[8] = second compound 0.03 µM, first compound 0.1 µM
[9] = second compound 0.0949 µM, first compound 0.00316 µM
[10] = second compound 0.0949 µM, first compound 0.01 µM
[11] = second compound 0.0949 µM, first compound 0.0316 µM
[12] = second compound 0.0949 µM, first compound 0.1 µM
[13] = second compound 0.3 µM, first compound 0.00316 µM
[14] = second compound 0.3 µM, first compound 0.01 µM
[15] = second compound 0.3 µM, first compound 0.0316 µM
[16] = second compound 0.3 µM, first compound 0.1 µM
[17] = second compound 0.949 µM, first compound 0.00316 µM
[18] = second compound 0.949 µM, first compound 0.01 µM
[19] = second compound 0.949 µM, first compound 0.0316 µM
[20] = second compound 0.949 µM, first compound 0.1 µM
[21] = second compound 3 µM, first compound 0.00316 µM
[22] = second compound 3 µM, first compound 0.01 µM
[23] = second compound 3 µM, first compound 0.0316 µM
[24] = second compound 3 µM, first compound 0.1 µM
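Further: spheroids exposed to compounds for 7 days.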
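Wherever viability, T/C is given: 100% = DMSO vehicle control wells.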

Work on COc1c(OCCCN2CCOCC2)ccc2c3n(c(=NC(=O)c4cnc(N)nc4)nc12)CCN3 + CCN1C(C(=O)NC23CCC(C(=O)O)(CC2)CC3)C(c2cccc(Cl)c2F)C2(C(=O)Nc3cc(Cl)ccc32)C12CCCCC2 yielded an IC50 (second compound 0.00949 µM) of 211 nM, an IC50 (second compound 0.03 µM) of 365 nM and an IC50 (second compound 0.0949 µM) of 469 nM. The IC50 (second compound 0.3 µM) was 321 nM, the IC50 (second compound 0.949 µM) was 309 nM and the IC50 (second compound 3 µM) was 290 nM. For the same compound, the viability, T/C [1] was 102%, the viability, T/C [2] was 79.9% and the viability, T/C [3] was 62.5%. The viability, T/C [4] was 65.2%, the viability, T/C (second compound 0.00949 µM, first compound 0.316 µM) was 51.9% and the viability, T/C (second compound 0.00949 µM, first compound 1 µM) was 28.3%. The viability, T/C [5] was 93.4%, the viability, T/C [6] was 77.1% and the viability, T/C [7] was 73.2%. The viability, T/C [8] was 66.2%, the viability, T/C (second compound 0.03 µM, first compound 0.316 µM) was 52.6% and the viability, T/C (second compound 0.03 µM, first compound 1 µM) was 37.4%. For the same compound, the viability, T/C [9] was 79.1%, the viability, T/C [10] was 77.9% and the viability, T/C [11] was 59.5%. It also gave a viability, T/C [12] of 77.7%, a viability, T/C (second compound 0.0949 µM, first compound 0.316 µM) of 53.9% and a viability, T/C (second compound 0.0949 µM, first compound 1 µM) of 37%. The viability, T/C [13] was 95.5%, the viability, T/C [14] was 83.3% and the viability, T/C [15] was 70.1%. For the same compound, the viability, T/C [16] was 65.5%, the viability, T/C (second compound 0.3 µM, first compound 0.316 µM) was 56% and the viability, T/C (second compound 0.3 µM, first compound 1 µM) was 32.1%. For the same compound, the viability, T/C [17] was 84%, the viability, T/C [18] was 90.6% and the viability, T/C [19] was 80.5%. The viability, T/C [20] was 67.6%, the viability, T/C (second compound 0.949 µM, first compound 0.316 µM) was 50.6% and the viability, T/C (second compound 0.949 µM, first compound 1 µM) was 32.7%. For the same compound, the viability, T/C [21] was 82.1%, the viability, T/C [22] was 83.8% and the viability, T/C [23] was 78.8%. For the same compound, the viability, T/C [24] was 65%, the viability, T/C (second compound 3 µM, first compound 0.316 µM) was 49.6% and the viability, T/C (second compound 3 µM, first compound 1 µM) was 28.8%.
NC(=O)C(=Cn1cnc(-c2cc(C(F)(F)F)cc(C(F)(F)F)c2)n1)c1cncnc1 + CCN1C(C(=O)NC23CCC(C(=O)O)(CC2)CC3)C(c2cccc(Cl)c2F)C2(C(=O)Nc3cc(Cl)ccc32)C12CCCCC2 was tested, and the IC50 (second compound 0.00949 µM) was greater than 300 nM, the IC50 (second compound 0.03 µM) was greater than 300 nM and the IC50 (second compound 0.0949 µM) was greater than 300 nM. It also gave an IC50 (second compound 0.3 µM) greater than 300 nM, an IC50 (second compound 0.949 µM) greater than 300 nM and an IC50 (second compound 3 µM) greater than 300 nM. The viability, T/C (second compound 0.00949 µM, first compound 0.000949 µM) was 99.6%, the viability, T/C (second compound 0.00949 µM, first compound 0.003 µM) was 86.8% and the viability, T/C (second compound 0.00949 µM, first compound 0.00949 µM) was 77.3%. For the same compound, the viability, T/C (second compound 0.00949 µM, first compound 0.03 µM) was 99%, the viability, T/C (second compound 0.00949 µM, first compound 0.0949 µM) was 82.9% and the viability, T/C (second compound 0.00949 µM, first compound 0.3 µM) was 93.2%. The viability, T/C (second compound 0.03 µM, first compound 0.000949 µM) was 93.7%, the viability, T/C (second compound 0.03 µM, first compound 0.003 µM) was 83.7% and the viability, T/C (second compound 0.03 µM, first compound 0.00949 µM) was 69.6%. The viability, T/C (second compound 0.03 µM, first compound 0.03 µM) was 86%, the viability, T/C (second compound 0.03 µM, first compound 0.0949 µM) was 103% and the viability, T/C (second compound 0.03 µM, first compound 0.3 µM) was 102%. It also gave a viability, T/C (second compound 0.0949 µM, first compound 0.000949 µM) of 88.8%, a viability, T/C (second compound 0.0949 µM, first compound 0.003 µM) of 87.3% and a viability, T/C (second compound 0.0949 µM, first compound 0.00949 µM) of 78.1%. It also gave a viability, T/C (second compound 0.0949 µM, first compound 0.03 µM) of 85.1%, a viability, T/C (second compound 0.0949 µM, first compound 0.0949 µM) of 98.8% and a viability, T/C (second compound 0.0949 µM, first compound 0.3 µM) of 113%. It also gave a viability, T/C (second compound 0.3 µM, first compound 0.000949 µM) of 88.7%, a viability, T/C (second compound 0.3 µM, first compound 0.003 µM) of 76.9% and a viability, T/C (second compound 0.3 µM, first compound 0.00949 µM) of 85.8%. The viability, T/C (second compound 0.3 µM, first compound 0.03 µM) was 82.2%, the viability, T/C (second compound 0.3 µM, first compound 0.0949 µM) was 117% and the viability, T/C (second compound 0.3 µM, first compound 0.3 µM) was 107%. The viability, T/C (second compound 0.949 µM, first compound 0.000949 µM) was 94%, the viability, T/C (second compound 0.949 µM, first compound 0.003 µM) was 78.3% and the viability, T/C (second compound 0.949 µM, first compound 0.00949 µM) was 95.1%. For the same compound, the viability, T/C (second compound 0.949 µM, first compound 0.03 µM) was 78.7%, the viability, T/C (second compound 0.949 µM, first compound 0.0949 µM) was 105% and the viability, T/C (second compound 0.949 µM, first compound 0.3 µM) was 98.1%. The viability, T/C (second compound 3 µM, first compound 0.000949 µM) was 87.2%, the viability, T/C (second compound 3 µM, first compound 0.003 µM) was 97.7% and the viability, T/C (second compound 3 µM, first compound 0.00949 µM) was 69.6%. For the same compound, the viability, T/C (second compound 3 µM, first compound 0.03 µM) was 75.7%, the viability, T/C (second compound 3 µM, first compound 0.0949 µM) was 99.8% and the viability, T/C (second compound 3 µM, first compound 0.3 µM) was 84.4%.
NC1CCC(NC2CC2c2ccccc2)CC1 (stereo unspecified) + CCN1C(C(=O)NC23CCC(C(=O)O)(CC2)CC3)C(c2cccc(Cl)c2F)C2(C(=O)Nc3cc(Cl)ccc32)C12CCCCC2 showed an IC50 (second compound 0.00949 µM) greater than 100 nM, an IC50 (second compound 0.03 µM) greater than 100 nM and an IC50 (second compound 0.0949 µM) greater than 100 nM. It also gave an IC50 (second compound 0.3 µM) greater than 100 nM, an IC50 (second compound 0.949 µM) greater than 100 nM and an IC50 (second compound 3 µM) greater than 100 nM. For the same compound, the viability, T/C (second compound 0.00949 µM, first compound 0.000316 µM) was 112%, the viability, T/C (second compound 0.00949 µM, first compound 0.001 µM) was 104% and the viability, T/C [1] was 90.5%. The viability, T/C [2] was 105%, the viability, T/C [3] was 85.3% and the viability, T/C [4] was 108%. It also gave a viability, T/C (second compound 0.03 µM, first compound 0.000316 µM) of 111%, a viability, T/C (second compound 0.03 µM, first compound 0.001 µM) of 106% and a viability, T/C [5] of 100%. For the same compound, the viability, T/C [6] was 99.6%, the viability, T/C [7] was 105% and the viability, T/C [8] was 84.7%. The viability, T/C (second compound 0.0949 µM, first compound 0.000316 µM) was 108%, the viability, T/C (second compound 0.0949 µM, first compound 0.001 µM) was 118% and the viability, T/C [9] was 120%. The viability, T/C [10] was 127%, the viability, T/C [11] was 99.6% and the viability, T/C [12] was 99.9%. For the same compound, the viability, T/C (second compound 0.3 µM, first compound 0.000316 µM) was 94.6%, the viability, T/C (second compound 0.3 µM, first compound 0.001 µM) was 108% and the viability, T/C [13] was 111%. For the same compound, the viability, T/C [14] was 101%, the viability, T/C [15] was 110% and the viability, T/C [16] was 102%. For the same compound, the viability, T/C (second compound 0.949 µM, first compound 0.000316 µM) was 101%, the viability, T/C (second compound 0.949 µM, first compound 0.001 µM) was 125% and the viability, T/C [17] was 114%. It also gave a viability, T/C [18] of 105%, a viability, T/C [19] of 113% and a viability, T/C [20] of 96%. For the same compound, the viability, T/C (second compound 3 µM, first compound 0.000316 µM) was 113%, the viability, T/C (second compound 3 µM, first compound 0.001 µM) was 109% and the viability, T/C [21] was 128%. It also gave a viability, T/C [22] of 104%, a viability, T/C [23] of 111% and a viability, T/C [24] of 88.7%.
